Common to all, as to type: in vivo
For assay [1], the system named is pentylenetetrazole induced convulsion. The assay can be described thus: pentylenetetrazole induced convulsion in mouse. The protocol:
Male ICR mouse, 18˜22 g; purchased from Animal Experiment Center of Wenzhou Medical University. Before experiment, animals were adapted to environment for at least 5 days. Kept at 25 °C, food and water were freely fed. Based on the weight, the healthy male ICR mice were randomly divided into control group (1% DMSO, ip), model group, CCPA group (0.1 mg·kg^−1, ip), HEA group (15 mg/kg, 40 mg/kg, 60 mg/kg), DPCPX group (2 mg·kg^−1, ip), ZM241385 group (1 mg·kg^−1, 5 mg·kg^−1, ip), DPCPX+HEA (2 mg·kg^−1+40 mg/kg, ip) group and ZM241385+HEA (1 mg·kg^−1+40 mg/kg, 5 mg·kg^−1+40 mg/kg ip) group.
The survival time and mortality after convulsion were respectively recorded for each group.

In assay [2] the test system is rat middle cerebral artery distal obstruction cerebral ischemia model. The assay can be described thus: dMCAO cerebral ischemia: TUNEL detection of brain cortex apoptosis. The procedure:
Using rat middle cerebral artery distal obstruction cerebral ischemia model. (1) according to rat weight, 10% chloral hydrate (3 ml/kg) was peritoneally injected to anaesthetize. (2) the rat lie on right side and fixed, 1 cm skin incision was cut at connection of inner canthus with external canal, fascia was isolated, muscle tissue, the skull was exposed; (3) a small amount of normal saline was sucked with cotton ball to wipe the skull to ac clear view; (4) fascia was isolated under operating microscope, and the skull was exposed, a hole with diameter of 2 mm circular was drilled at a sute 1/3 of spine; (5) the excess bone debris was washed by a small amount of normal saline, the meninge was push aside, and the middle cerebral artery MCA was exposed; (6) the rat lie in supine position and fixed, an incision was made along middle of throat, and arteria carotis communis CCA on both sides were isolate, pass through with a surgical suture, not ligated temporarily; (7) the MCA was found under operating microscope, burned by a monopolar coagulator, then wash and colled with normal saline; (8) immediately after coagulation, the arteria carotis communis on both sides was ligated, and blocked for 60 min; (9) the wound on head was stitched, after 1 hour the arteria carotis communis on both sides was […], and the skin was stitched, thus the modeling was complete. […]

Assay [3] concerns ICAM-1 mRNA in mouse renal cortex. The assay can be described thus: kidney ischemia reperfusion: real time quantitative PCR of ICAM-1. Particulars: vs IR group; HEA 5, 7.5, 10 mg/kg; DPCPX 1 mg/kg; DPCPX 1 mg/kg+HEA. The procedure:
(§1) Male C57BL/6 mice 20-25 g, after one week of adaptive feeding to the animals, were randomly divided into eight groups: sham-operation group, IR group, HEA 5 mg/kg group, HEA 7 mg/kg group, HEA 10 mg/kg group, DPCPX (1 mg/kg) group, DPCPX (1 mg/kg)+HEA (5 mg/kg) group and DPCPX (1 mg/kg)+HEA (7.5 mg/kg) group. […]
(§2) The MPO analysis was conducted according to the specification in the kit. 9.2.6 Real time quantitative PCR analysis of gene expression of ICAM-1, TNF-α and IL-1β; the sequence of primer used in RT-PCR reaction system is as follow:
(§3) PCR amplification reaction system: IQ SYBR Green Super mix 12.5 μL, Forward primer (10 μmo/L) 1 μL, Reverse primer (10 μmol/L) 1 μL, cDNA (water was added to dilute to same level) 10.5 μL. […] The statistics and calculation of experiment results was automatically conducted fluorescence quantitative PCR analyzing software BIO-RAD CFX Manager. Target gene mRNA expression level was calculated by 2-ΔΔCt method, and standardized using the GAPDH mRNA in corresponding specimen a standard.

Assay [4] deals with IL-1β mRNA in mouse renal cortex. The assay can be described thus: kidney ischemia reperfusion: real time quantitative PCR of IL-1β. Particulars: vs IR group; HEA 5, 7.5, 10 mg/kg; DPCPX 1 mg/kg; DPCPX 1 mg/kg+HEA. The protocol: as §1, §2, §3

“Also recorded” adds a separate entry of the source.

In the case of `CCCn1c(=O)c2[nH]c(C3CCCC3)nc2n(CCC)c1=O` [DPCPX, reference compound], the “effect of antagonist on the anti-convulsion action of the HEA” value in assay [1] (antagonist ip 10 min before HEA 40 mg/kg, DPCPX 2 mg/kg, ZM241385 1 and 5 mg/kg) is “significantly inhibit the anti-convulsion effect of the HEA; also recorded: significantly reduce the anti-convulsion effect of the HEA”. The “effect of DPCPX on brain protective effect of HEA (TUNEL)” value in assay [2] (DPCPX 1 mg/kg ip + HEA 7.5 mg/kg ip) was “blocking brain protective effect of the HAE”. Moreover, the “ICAM-1 mRNA expression in renal cortex” value in assay [3] was “not statistically significant”. The “IL-1β mRNA expression in renal cortex” value in assay [4] is on record as “significantly increase”.

For the compound `OCCNc1ncnc2c1ncn2[C@@H]1O[C@H](CO)[C@@H](O)[C@H]1O` [HEA, N(6)-(2-hydroxyethyl)-adenosine], in assay [1] (HEA 40 mg/kg ip, pentylenetetrazole 100 mg/kg ip, vs control group), the “survival time after convulsion” value is given as “significantly extend the survival time”. Besides, in assay [1] (HEA 40 mg/kg, pentylenetetrazole 100 mg/kg ip), the “mortality of mouse convulsion” value is listed as “very significantly reduce the mortality”. In addition, the “apoptosis rate of cerebral cortex infarction ischemic penumbra (TUNEL)” value in assay [2] (dMCAO rat, HEA 7.5 mg/kg ip, vs model group) is listed as “significantly reduced; also recorded: significantly reduce the apoptosis rate of rat cerebral cortex infarction ischemic penumbra”. In addition, the “ICAM-1 mRNA expression in renal cortex” value in assay [3] is given as “significantly reduce the high expression”. In addition, the “IL-1β mRNA expression in renal cortex” value in assay [4] is “significantly reduce the high expression”.

For the origin of these results see patent US10479814B2, “Adenosine receptor activation reagent and the uses of thereof” (Zhejiang Subtropical Crops Research Institute, priority 2014, dated 2019).
